For 14 compounds, IC50 and inhibition results are on record in patent US11186564B2, “Dual NAV1.2/5HT2a inhibitors for treating CNS disorders” (Sunovion Pharmaceuticals Inc., priority 2016, dated 2021).

The structures appear in SMILES notation. pIC50: −log10 of the molar value.

The pIC50 is the negative decadic logarithm of the IC50, by convention in mol/L.

Assay [1] deals with T1, recombinant human serotonin receptor 5-HT2A (Homo sapiens, UniProt P28223).
T1 construct: expressed in transfected cells; method B: loaded with Ca2+ dye
The assay is described as follows: 5-HT2A antagonist Ca2+ assay in CHO-K1 cells (method A aequorin luminescence / method B FLIPR fluorescence). The following applies: antagonist mode vs EC80 of reference agonist, method A or B, read-out: 5HT2A IC50. Format: cell-based. The method in brief: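 Method A: CHO-K1 cells co-expressing human 5-HT2A and mitochondrial apoaequorin were given reference agonist at EC80 15 min after compound, with luminescence read. Method B: dye-loaded 5-HT2A CHO-K1 cells were pretreated with compound, then given serotonin at EC80, with FLIPR fluorescence read. IC50s came from nonlinear fits of percent inhibition.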

Assay [2] has as its target human sodium channel NaV1.2 (Homo sapiens, UniProt Q99250). Briefly: NaV1.2 inhibition, automated patch-clamp (Q-Patch HTX), slow inactivated state (state C). The following applies: hNaV1.2 CHO cells, slow inactivated state; for pIC50: read-out: NaV1.2 IC50; for inhibition at 10 µM: 10 μM compound, read-out: NaV1.2 (% inh), 10 μM; for inhibition at 1 µM: 1 μM compound, read-out: NaV1.2 (% inh), 1 μM. It counts as cell-based. In short, it runs like this:
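CHO K-1 cells stably expressing human NaV1.2, whole-cell automated patch clamp, holding −100 mV; slow-inactivated state (state C) read at a 5 ms step to 0 mV after 10 s at −50 mV and 15 ms at −90 mV. Percent inhibition vs vehicle; IC50 by nonlinear least-squares fit.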
(In general: Patch clamp records ionic current or voltage across a cell membrane.)

T1 sequence (P28223 whole entry): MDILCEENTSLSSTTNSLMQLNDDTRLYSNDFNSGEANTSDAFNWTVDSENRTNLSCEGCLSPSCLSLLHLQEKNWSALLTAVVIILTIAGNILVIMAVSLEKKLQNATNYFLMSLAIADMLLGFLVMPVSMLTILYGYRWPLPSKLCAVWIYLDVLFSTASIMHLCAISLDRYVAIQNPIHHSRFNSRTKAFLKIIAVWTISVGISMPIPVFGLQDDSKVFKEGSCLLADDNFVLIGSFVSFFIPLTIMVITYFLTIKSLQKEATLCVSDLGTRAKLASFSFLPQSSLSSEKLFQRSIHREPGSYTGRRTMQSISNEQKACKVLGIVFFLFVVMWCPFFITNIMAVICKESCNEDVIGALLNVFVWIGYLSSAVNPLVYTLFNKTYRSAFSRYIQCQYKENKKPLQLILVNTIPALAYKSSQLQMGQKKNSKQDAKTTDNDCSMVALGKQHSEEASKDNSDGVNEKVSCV
Chain of human sodium channel NaV1.2 (Q99250 whole entry): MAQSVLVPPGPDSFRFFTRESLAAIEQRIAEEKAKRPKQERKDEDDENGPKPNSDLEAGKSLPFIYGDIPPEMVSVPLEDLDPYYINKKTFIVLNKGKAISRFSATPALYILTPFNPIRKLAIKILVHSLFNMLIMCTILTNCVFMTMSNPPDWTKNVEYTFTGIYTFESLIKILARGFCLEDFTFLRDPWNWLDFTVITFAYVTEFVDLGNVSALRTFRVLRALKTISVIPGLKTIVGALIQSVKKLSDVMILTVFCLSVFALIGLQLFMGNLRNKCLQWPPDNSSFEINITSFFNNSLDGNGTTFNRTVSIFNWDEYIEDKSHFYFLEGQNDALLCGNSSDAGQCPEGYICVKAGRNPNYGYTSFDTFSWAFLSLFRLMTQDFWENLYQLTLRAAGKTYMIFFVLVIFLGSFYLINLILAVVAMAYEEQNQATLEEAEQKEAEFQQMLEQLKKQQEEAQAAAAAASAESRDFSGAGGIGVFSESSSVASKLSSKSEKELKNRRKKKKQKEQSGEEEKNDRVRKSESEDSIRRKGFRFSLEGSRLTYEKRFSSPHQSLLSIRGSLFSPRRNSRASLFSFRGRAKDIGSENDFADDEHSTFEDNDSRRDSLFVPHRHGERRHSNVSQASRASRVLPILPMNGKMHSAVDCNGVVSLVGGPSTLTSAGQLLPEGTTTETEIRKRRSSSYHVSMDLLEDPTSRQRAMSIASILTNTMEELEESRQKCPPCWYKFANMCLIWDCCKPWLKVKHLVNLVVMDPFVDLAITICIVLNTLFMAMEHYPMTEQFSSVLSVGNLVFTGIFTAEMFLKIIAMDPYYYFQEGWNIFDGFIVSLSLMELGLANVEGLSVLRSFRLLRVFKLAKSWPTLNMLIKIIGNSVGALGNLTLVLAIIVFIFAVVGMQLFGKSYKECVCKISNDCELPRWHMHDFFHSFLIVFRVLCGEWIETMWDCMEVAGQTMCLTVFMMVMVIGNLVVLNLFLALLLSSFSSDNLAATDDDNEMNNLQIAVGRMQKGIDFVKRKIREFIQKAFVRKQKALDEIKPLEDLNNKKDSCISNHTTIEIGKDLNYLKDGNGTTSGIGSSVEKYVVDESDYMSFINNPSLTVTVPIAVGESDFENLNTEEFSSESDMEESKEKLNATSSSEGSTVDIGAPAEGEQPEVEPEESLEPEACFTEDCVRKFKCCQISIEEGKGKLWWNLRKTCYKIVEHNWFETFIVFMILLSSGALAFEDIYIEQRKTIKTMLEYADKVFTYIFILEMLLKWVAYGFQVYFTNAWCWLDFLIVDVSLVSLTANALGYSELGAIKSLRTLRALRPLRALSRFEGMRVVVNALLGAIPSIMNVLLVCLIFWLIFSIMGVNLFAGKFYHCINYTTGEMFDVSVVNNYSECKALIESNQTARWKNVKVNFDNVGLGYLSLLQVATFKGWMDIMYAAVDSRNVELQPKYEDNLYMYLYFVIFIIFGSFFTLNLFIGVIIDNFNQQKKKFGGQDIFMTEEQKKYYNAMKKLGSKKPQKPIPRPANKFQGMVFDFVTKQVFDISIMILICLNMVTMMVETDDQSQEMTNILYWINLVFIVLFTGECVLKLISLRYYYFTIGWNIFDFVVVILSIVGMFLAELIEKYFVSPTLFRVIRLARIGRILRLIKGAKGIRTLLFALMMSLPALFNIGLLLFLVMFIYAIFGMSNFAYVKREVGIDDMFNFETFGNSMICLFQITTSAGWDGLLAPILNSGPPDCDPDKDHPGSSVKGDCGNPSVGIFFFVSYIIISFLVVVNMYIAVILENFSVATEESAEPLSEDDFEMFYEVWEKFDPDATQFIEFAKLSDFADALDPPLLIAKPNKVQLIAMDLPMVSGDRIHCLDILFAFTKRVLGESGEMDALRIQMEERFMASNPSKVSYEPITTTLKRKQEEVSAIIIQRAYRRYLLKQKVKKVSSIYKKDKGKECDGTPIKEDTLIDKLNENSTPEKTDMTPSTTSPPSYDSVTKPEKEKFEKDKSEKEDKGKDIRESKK

On to `c1ccc(O[C@@H]2COC3(CCN(C[C@@H]4CCc5ccccc54)CC3)C2)cc1` (single isomer, unassigned) [Compound 383], for which the pIC50 is 6.47 in assay [1] and 6.96 in assay [2].

For `N#Cc1cccc(OC2CCN(CCN3CCc4ccccc4C3=O)CC2)c1` [Example 197, 3-((1-(2-(1-oxo-3,4-dihydroisoquinolin-2(1H)-yl)ethyl)piperidin-4-yl)oxy)benzonitrile], the pIC50 in assay [1] is 5.90. In addition, in assay [2], the inhibition at 10 µM was 47%.

As to `OC(COC1CCCCC1)CN1C[C@@H]2CC[C@H]1CN2c1ccccc1` (stereo partly drawn) [Example 317, 1-(cyclohexyloxy)-3-((1S,4S)-5-phenyl-2,5-diazabicyclo[2.2.2]octan-2-yl)propan-2-ol], the pIC50 in assay [1] is 6.31; in assay [2], 5.74.

As for `N#Cc1ccc2c(c1)CCC2CN1CCC(Oc2ccc(F)cc2)CC1` (stereo not shown) [Example 121], the results for the negative-log IC50 (pIC50) in assay [1] and in assay [2] were 7.15 and 5.68, respectively.

`CN(C)c1ccc(OC2CCN(CCN3CCc4ccccc4C3=O)CC2)cc1` [Example 201, 2-(2-(4-(4-(dimethylamino)phenoxy)piperidin-1-yl)ethyl)-3,4-dihydroisoquinolin-1(2H)-one]: in assay [1], the pIC50 was 5.66. Moreover, the inhibition at 10 µM in assay [2] came to 39%.

As to `Fc1ccc(N2CCC3(CCN(CC4CCc5cccnc54)C3)C2)cc1` (stereo not shown) [Example 337, 2-((6,7-dihydro-5H-cyclopenta[b]pyridin-7-yl)methyl)-7-(4-fluorophenyl)-2,7-diazaspiro[4.4]nonane], the negative logarithm of the IC50 (pIC50) in assay [1] was 6.35. In assay [2], the inhibition at 1 µM was -2%.

For `OC(COC1CCCc2ccccc21)CN1CCN(Cc2ccccc2)CC1` (stereo not shown) [Example 83, 1-(4-benzylpiperazin-1-yl)-3-((1,2,3,4-tetrahydronaphthalen-1-yl)oxy) propan-2-ol], the pIC50 in assay [1] was 5.54; in assay [2], 7.70.

Take `Fc1ccc(O[C@H]2CCCN(CC3CCc4ccccc43)C2)cc1` (stereo partly drawn) [Example 254, (3S)-1-((2,3-dihydro-1H-inden-1-yl)methyl)-3-(4-fluorophenoxy)piperidine]: the figures for the pIC50 in assay [1] and in assay [2] were 6.28 and 6.11, respectively.

As for `c1ccc(O[C@H]2COC3(CCN(C[C@@H]4CCc5ccccc54)CC3)C2)cc1` (single isomer, unassigned) [Compound 382], the results for the negative-log IC50 (pIC50) in assay [1] and in assay [2] were 7.22 and 5.92, respectively.

Regarding `Clc1ccccc1OCCN1CCN(c2nsc3ccccc23)CC1` [Example 69, 3-(4-(2-(2-chlorophenoxy)ethyl)piperazin-1-yl)benzo[d]isothiazole], in assay [1], the pIC50 was 8.52. The inhibition at 10 µM in assay [2] is 91%.

In the case of `Fc1ccc(OC2CCN(CCC3CCc4ccncc43)CC2)cc1` (stereo not shown) [Example 174, 7-(2-(4-(4-fluorophenoxy)piperidin-1-yl)ethyl)-6,7-dihydro-5H-cyclopenta[c]pyridine], the pIC50 in assay [1] is 8.00. Besides, in assay [2], the inhibition at 1 µM stood at 12%.

For the compound `COc1ccccc1N1CCC2(CCN(CC3CCc4ccccc43)C2)C1` (stereo not shown) [Example 335, 2-((2,3-dihydro-1H-inden-1-yl)methyl)-7-(2-methoxyphenyl)-2,7-diazaspiro[4.4]nonane], the pIC50 was 7.40 in assay [1] and 6.92 in assay [2].

With `COc1ccccc1O[C@H]1CCN(CC2Cc3cccnc3C2)[C@@H](C)C1` (stereo partly drawn) [Example 150, 6-(((2S,4S)-4-(2-methoxyphenoxy)-2-methylpiperidin-1-yl)methyl)-6,7-dihydro-5H-cyclopenta[b]pyridine], the negative-log IC50 (pIC50) in assay [1] is 6.14. The inhibition at 1 µM in assay [2] worked out at 14%.

For the compound `CN1CCN(CC2CCc3ccccc32)CC1COc1ccc(F)cc1` (stereo not shown) [Example 270, 4-((2,3-dihydro-1H-inden-1-yl)methyl)-2-((4-fluorophenoxy)methyl)-1-methylpiperazine], in assay [1], the pIC50 was 6.96. Also, the inhibition at 1 µM in assay [2] is 56%.
